Source: patent publication US20240391965A1, “STAPLED ANTIMICROBIAL PEPTIDES (STAMPS) AND USES THEREOF” (Lytica Therapeutics, Inc., priority 2021, published 2024)
Converted amounts (≈) assume the structure as drawn. Starred links: 1 amine or outer side, 2 acyl side, 3 side chain; linkers in the order of their positions; H or OH if unused. Positions of bridges follow the written chain, without caps; N, C: chain ends. Residues, ends and D or L forms follow the SMILES beside them. 2,2'Bipyridine(5,5'-diCH2) = c1cc(-c2ccc(C[*:2])cn2)ncc1C[*:1]; Naphthalene(2,6-diCH2) = c1cc2cc(C[*:2])ccc2cc1C[*:1]; pXylylene = c1cc(C[*:2])ccc1C[*:1]

What was measured:
[1] = 90 minute cytotoxicity assay (LDH release), renal toxicity; assay type: cell-based; details: 90 minutes of incubation, LDH release; read-out: Inhibitory Concentration at 50% Cytotoxicity (IC50) Human Renal Proximal Tubule Epithelial Cells (RPTEC)
Outline: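 RPTEC plated overnight, given fresh medium, then exposed to serial peptide dilutions or vehicle for 90 min at 37° C. Medium LDH measured by 10 min reagent incubation and absorbance at 490 nm.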

[2] = 48 hours cytotoxicity assay (CellTiter-Glo), liver toxicity; assay type: cell-based, human; details: 48 hours of incubation, CellTiter-Glo; read-out: Inhibitory Concentration at 50% Cytotoxicity (IC50) Human Liver Cells (HepG2)
Outline: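 HepG2 cells in EMEM with 10% FBS, allowed to attach 4 h, then exposed to serially diluted StAMPs or vehicle for 48 h at 37 °C. Viability read by CellTiter-Glo luminescence.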

[3] = tested on: Acinetobacter baumannii (A. baumannii); assay type: cell-based; details: microbroth dilution, 20-24 hours at 37° C.
Outline: (§1)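 Minimum inhibitory concentrations come from a CLSI-adapted broth microdilution. Cells grew in Mueller-Hinton or cation-adjusted Mueller-Hinton broth, were exposed to peptide dilutions at 5×10^5 CFU/ml, and were read by eye after 20-24 h at 37 °C.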

[4] = tested on: Escherichia coli (E. coli); assay type: cell-based; details: microbroth dilution, 20-24 hours at 37° C.
Outline: as §1

[5] = tested on: Staphylococcus aureus (S. aureus); assay type: cell-based; details: microbroth dilution, 20-24 hours at 37° C.
Outline: as §1

[6] = tested on: Pseudomonas aeruginosa (P. aeruginosa); assay type: cell-based; details: microbroth dilution, 20-24 hours at 37° C.
Outline: as §1

[7] = tested on: Klebsiella pneumoniae (K. pneumoniae); assay type: cell-based; details: microbroth dilution, 20-24 hours at 37° C.
Outline: as §1

## CC[C@H](C)[C@H](NC(=O)CN)C(=O)N[C@@H](Cc1ccccc1)C(=O)N[C@@H](CO)C(=O)N[C@@H](CCCCN)C(=O)N[C@@H](CC(C)C)C(=O)N[C@@H](C)C(=O)NCC(=O)N[C@@H](CCCCN)C(=O)N[C@@H](CCCCN)C(=O)N[C@H](C(=O)N[C@@H](CCCCN)C(=O)N[C@@H](CC(N)=O)C(=O)N[C@@H](CC(C)C)C(=O)N[C@@H](CC(C)C)C(=O)N[C@H]1CSCc2ccc(cc2)CSC[C@@H](C(=O)NCC(N)=O)NC(=O)[C@H](CC(C)C)NC(=O)CNC(=O)[C@H](CO)NC1=O)[C@@H](C)CC [compound 33] (H-GIFSKLAGKKIKNLLCSGLCG-NH2; linker 16-20 via pXylylene)
[1]
  IC50: 59 µg/mL (≈ 26.2 µM)
[2]
  IC50: 57 µg/mL (≈ 25.3 µM)
[3]
  Minimum Inhibitory Concentration (MIC) A. baumannii: 4 µg/mL
[4]
  Minimum Inhibitory Concentration (MIC) E. coli: 4 µg/mL
[5]
  Minimum Inhibitory Concentration (MIC) S. aureus: 64 µg/mL
[6]
  Minimum Inhibitory Concentration (MIC) P. aeruginosa: 16 µg/mL
[7]
  Minimum Inhibitory Concentration (MIC) K. pneumoniae: 8 µg/mL

## CC[C@H](C)[C@H](NC(=O)[C@H](CC(C)C)NC(=O)[C@H](CC(C)C)NC(=O)[C@H](CC(N)=O)NC(=O)[C@H](CCCCN)NC(=O)[C@@H](NC(=O)[C@H](CCCCN)NC(=O)[C@H](CCCCN)NC(=O)[C@@H]1CSCc2ccc(nc2)-c2ccc(cn2)CSC[C@H](N)C(=O)N[C@@H]([C@@H](C)CC)C(=O)N[C@@H](Cc2ccccc2)C(=O)N[C@@H](CO)C(=O)N[C@@H](CCCCN)C(=O)N[C@@H](CC(C)C)C(=O)N[C@@H](C)C(=O)N1)[C@@H](C)CC)C(=O)N[C@@H](CO)C(=O)NCC(=O)N[C@@H](CC(C)C)C(=O)N[C@@H](CCCCN)C(=O)NCC(N)=O [compound 49] (H-CIFSKLACKKIKNLLISGLKG-NH2; linker 1-8 via 2,2'Bipyridine(5,5'-diCH2); N-terminus assumed)
[1]
  IC50: 60 µg/mL (≈ 24.4 µM)
[2]
  IC50: 22 µg/mL (≈ 8.95 µM)
[3]
  Minimum Inhibitory Concentration (MIC) A. baumannii: 32 µg/mL
[4]
  Minimum Inhibitory Concentration (MIC) E. coli: 32 µg/mL
[5]
  Minimum Inhibitory Concentration (MIC) S. aureus: >64 µg/mL
[6]
  Minimum Inhibitory Concentration (MIC) P. aeruginosa: >64 µg/mL
[7]
  Minimum Inhibitory Concentration (MIC) K. pneumoniae: >64 µg/mL

## CC[C@H](C)[C@H](NC(=O)[C@H](CC(C)C)NC(=O)[C@H](CC(C)C)NC(=O)[C@H](CC(N)=O)NC(=O)[C@H](CCCCN)NC(=O)[C@@H](NC(=O)[C@H](CCCCN)NC(=O)[C@H](CCCCN)NC(=O)[C@@H]1CSCc2ccc3cc(ccc3c2)CSC[C@H](N)C(=O)N[C@@H]([C@@H](C)CC)C(=O)N[C@@H](Cc2ccccc2)C(=O)N[C@@H](CO)C(=O)N[C@@H](CCCCN)C(=O)N[C@@H](CC(C)C)C(=O)N[C@@H](C)C(=O)N1)[C@@H](C)CC)C(=O)N[C@@H](CO)C(=O)NCC(=O)N[C@@H](CC(C)C)C(=O)N[C@@H](CCCCN)C(=O)NCC(N)=O [compound 50] (H-CIFSKLACKKIKNLLISGLKG-NH2; linker 1-8 via Naphthalene(2,6-diCH2); N-terminus assumed)
[1]
  IC50: 17 µg/mL (≈ 7 µM)
[2]
  IC50: 103 µg/mL (≈ 42.4 µM)
[3]
  Minimum Inhibitory Concentration (MIC) A. baumannii: 8 µg/mL
[4]
  Minimum Inhibitory Concentration (MIC) E. coli: 16 µg/mL
[5]
  Minimum Inhibitory Concentration (MIC) S. aureus: 64 µg/mL
[6]
  Minimum Inhibitory Concentration (MIC) P. aeruginosa: >64 µg/mL
[7]
  Minimum Inhibitory Concentration (MIC) K. pneumoniae: 32 µg/mL

## CC[C@H](C)[C@H](NC(=O)[C@H](CC(C)C)NC(=O)[C@H](CC(C)C)NC(=O)[C@H](CC(N)=O)NC(=O)[C@H](CCCCN)NC(=O)[C@@H](NC(=O)[C@H](CCCCN)NC(=O)[C@@H]1CSCc2ccc3cc(ccc3c2)CSC[C@H](NC(=O)CN)C(=O)N[C@@H](Cc2ccccc2)C(=O)N[C@@H](CO)C(=O)N[C@@H](CCCCN)C(=O)N[C@@H](CC(C)C)C(=O)N[C@@H](C)C(=O)NCC(=O)N1)[C@@H](C)CC)C(=O)N[C@@H](CO)C(=O)NCC(=O)N[C@@H](CC(C)C)C(=O)N[C@@H](CCCCN)C(=O)NCC(N)=O [compound 52] (H-GCFSKLAGCKIKNLLISGLKG-NH2; linker 2-9 via Naphthalene(2,6-diCH2); N-terminus assumed)
[1]
  IC50: > 200 µg/mL
[2]
  IC50: 10 µg/mL (≈ 4.34 µM)
[3]
  Minimum Inhibitory Concentration (MIC) A. baumannii: 32 µg/mL
[4]
  Minimum Inhibitory Concentration (MIC) E. coli: 32 µg/mL
[5]
  Minimum Inhibitory Concentration (MIC) S. aureus: >64 µg/mL
[6]
  Minimum Inhibitory Concentration (MIC) P. aeruginosa: >64 µg/mL
[7]
  Minimum Inhibitory Concentration (MIC) K. pneumoniae: >64 µg/mL
